# Test results taken from patent publication US20170240592A1, “GADD45BETA/MKK7 INHIBITOR FOR THE TREATMENT OF A RESISTANT HAEMATOLOGICAL MALIGNANCY” (IMPERIAL INNOVATIONS LIMITED, priority 2014, published 2017).
# What was measured:
# [1] = system: KMS-12 cells; test: [3H]thymidine incorporation assay, DTP3 and bortezomib as single agents or in combination, KMS-12
# Experimental: Treatments with DTP3 were for 6 days; bortezomib was added to the cell cultures 48 hr prior to the measurement of cell viability. For the combination treatment, DTP3 was used at the concentrations of 3 nM in U266 cells and of 10 nM in KMS-12 cells, whereas bortezomib was used at increasing concentrations, as shown.
# Viability data from the experiment shown in FIG. 12 were converted into values representing the fraction of cells affected (FA) equaling 0.5 in the drug-treated cultures compared with untreated cultures, and the interaction of DTP3 with bortezomib was analysed according to the Chou-Talalay method (Chou, 2006). Also shown are the drug concentrations giving the FA value of 0.5 and the description of the CI. Based on the Chou-Talalay equation (Chou, 2006), synergy is present when the CI is less than 1.0 (where values between 0.3 and 0.7 denote synergism, and values between 0.1 and 0.3 denote strong synergism); the combination is additive when CI equals 1.0, and antagonistic when it is more than 1.0 (Chou, 2006).
# [^3H]Thymidine incorporation assays were performed using standard protocols (Griffiths and Sundaram, 2011). […] At 24, 72 or 144 hr, cells were incubated for an additional 16 hr with 0.037 MBq/well of [^3H]thymidine (Amersham), and then harvested onto glass fibre filter mats using a 96-well plate automated Tomtec cell harvester (Receptor Technologies) and analysed by liquid scintillation spectroscopy with a LKB Wallac Trilux Microbeta 3 b-counter (PerkinElmer). Values were expressed as the percentage of the counts per minute (cpm) measured in the treated cultures relative to the cpm measured in the respective untreated cultures. […]
# The activities of DTP3 and bortezomib in the U266 and KMS-12 myeloma cell lines, both as single agents and in combination, were determined using [^3H]thymidine incorporation assays, performed as described above in “Cell Proliferation, Cell Death, and Apoptosis Assays”. The IC50 values of bortezomib as single agent were determined at 48 hr using 9 concentrations of drug, ranging from 0.1 to 1,000 nM.
# [2] = thermodynamic solubility; format: physicochemical; details: PBS pH 7.4, at 37° C. for 14 days
# Experimental: In vitro pharmacokinetic assays were performed according to established, in-house protocols and included: plasma stability (human), thermodynamic solubility (PBS pH 7.4, at 37° C. for 14 days), microsomal stability (human), plasma protein binding (PPB; mouse and human), and distribution coefficient (Log D). In vivo pharmacokinetic analyses were also performed at Cyprotex according to established, in-house protocols. Briefly, the peptides were dissolved in PBS and administered by single intravenous injection to CD1 male mice at the dose of 10 mg/kg (25-30 g of total body weight; n=3 mice per time point per compound). Blood samples were collected in heparinized tubes at up to 7 time points after this injection (i.e. 0.08, 0.25, 0.5, 1, 2, 4 and 8 hr), and the plasma concentrations of the test peptide were determined at each time point by LC-MS/MS, using a five-point standard curve covering a peptide concentration range from 3 to 3,000 ng/mL. Standard curves were prepared using blank plasma matrices and treated in the same manner as the test samples. […] Values were calculated from the data of the peptide plasma concentration versus time curves using a non-compartmental model analysis, as described elsewhere (Groulx, 2006; Landaw and Di Stefano 3rd, 1982). […]
# [3] = system: subcutaneous U266 myeloma xenografts; test: plasmacytoma model, subcutaneous U266 myeloma xenografts; format: in vivo, NOD/SCID mice; details: for effect on established subcutaneous myeloma xenografts (tumour volume): to day 28
# Experimental: (§1) Values denote means±SEM (n=16). ***, p<0.001.
# (§2) Mice were housed in the animal facilities at Hammersmith. All experiments were conducted under PPL 70/6874, after approval by the Imperial College Ethical Review Process and the Home Office. For the plasmacytoma model, NOD/SCID mice (NOD.CB17-Prkdc^scid/IcrCrl; Charles River) were injected subcutaneously with 1.0×10^7 U266 or KMS-11 multiple myeloma cells, and then randomized into treatment groups and treated by infusion, as shown. Tumour volumes were measured as described in Mauro et al., 2011. For the orthotopic multiple myeloma model, mice of the same strain were sub-lethally irradiated and then injected intravenously with 1.0×10^7 KMS-12-BM multiple myeloma cells, as described in Rabin et al., 2007). Mice were then randomized into treatment groups and treated by infusion for 8 weeks, as shown. Animals were monitored daily and euthanized on day 161 of treatment start or when they reached any of the end-points in the PPL. Additional details are provided in the Supplemental Experimental Procedures.
# (§3) Mice were housed in the animal facilities at the Hammersmith Campus, Imperial College London, and experiments were conducted under the Home Office Authority (PPL 70/6874). The PPL was reviewed by the Imperial College Ethical Review Process (ERP) and the Home Office. For experiments in the subcutaneous xenograft models (FIGS. 16-17), 6 to 8-week old male NOD/SCID mice (NOD.CB17-Prkdc^scid/IcrCrl; Charles River) were injected intraperitoneally with anti-CD122 monoclonal antibody (TM-β1 clone; 200 μg/mouse) (Tanaka et al., 1991) and, 24 hr later, subcutaneously in the left flank with 1.0×10^7 U266 or KMS-11 human multiple myeloma cells resuspended in 200 μL of sterile PBS and Matrigel (1:1) (BD Biosciences), using a 1-mL Luer-Lok™ Tip syringe (BD Biosciences) with a 25-gauge needle (Bhutani et al., 2007). U266 and KMS-11 cells were harvested from exponentially growing cultures, washed once with serum-free medium, and resuspended in PBS immediately before injection (Bhutani et al., 2007). The anti-CD122 antibody was affinity purified using HiTrap Protein G HP columns (GE Healthcare), according to the manufacturer's instructions. One week after injection of the cells, when tumour volumes had reached approximately 100 mm^3 (U266 cells) or tumours had yet to be palpable (KMS-11 cells), mice were randomized into treatment groups (n=16 or n=4 per group, respectively; day 0) (Bhutani et al., 2007) and, then, treated by continual infusion of DTP3 at a dose of 14.5 mg/kg/d, yielding a plasma concentration of 0.70±0.09 μM (SEM; n=16), or PBS. Treatments were administered using Alzet osmotic pumps (model 1004; 28-day delivery at the rate of […]; Charles River), implanted surgically subcutaneously into the right flank of each mouse, according to the manufacturer's instructions (Gullapalli et al., 2012). For systemic administration, DTP3 was dissolved at the concentration of 147 mg/mL in PBS, and mice were euthanized on day 28 of the start of treatment with CO2. Tumour diameters were measured at the indicated times using a vernier calliper, and volumes were estimated from calliper measurements using the following equation: volume=A×B^2/2 (where A is the larger diameter, and B is the smaller diameter of the tumour) (Mauro et al., 2011). Results were reproduced at least twice. The plasma concentration of DTP3 was measured at the steady state by LC-MS/MS at Cyprotex, as described above.
# [4] = as above; format: in vivo, NOD/SCID mice; details: male, NOD/SCID (NOD.CB17-Prkdc^scid/IcrCrl), mouse, plasma, sc, 14.5 mg/kg/day; continual infusion via osmotic pumps, 14.5 mg/kg/d; SEM, n=16; read-out: plasma concentration at the steady state
# Experimental: as §1, §2, §3
# [5] = system: drug-resistant multiple myeloma cell lines; test: [3H]thymidine incorporation assay, sensitive and drug-resistant multiple myeloma cell lines; format: cell-based, human; details: 6-day treatment; MM1.R, AMO-1a, MM1/R10R, U266/R10R
# Excerpt: Matching pairs of sensitive (parental) and drug-resistant multiple myeloma cell lines were as follows: MM1.S (parental) and MM1.R (dexamethasone-resistant); AMO-1 (parental) and AMO-1a (bortezomib-resistant); MM1.S (parental) and MM1/R10R (lenalidomide-resistant); U266 (parental) and U266/R10R (lenalidomide-resistant). […] For clarity purposes, the same data for the parental MM1.S MM multiple myeloma cell line are shown as control for the dexamethasone-resistant (MM1.R) MM multiple myeloma cell line and the lenalidomide-resistant (MM1/R10R) MM multiple myeloma cell line.
# [6] = 14.5 mg/kg/day continual infusion
# [7] = 14.5 mg/kg/day, results not shown
smiles,measurement,setting,value
"CC(=O)N[C@H](Cc1ccc(O)cc1)C(=O)N[C@H](CCCNC(=N)N)C(=O)N[C@H](Cc1ccccc1)C(N)=O [DTP3, Acetyl-Tyr-Arg-Phe-NH2]",combination index (CI) with bortezomib,"[1]; FA 0.5, DTP3 10 nM for 6 days, bortezomib last 48 hr, Chou-Talalay",0.56
same,description of the CI,[1]; combination with bortezomib,synergism (values between 0.3 and 0.7 denote synergism)
same,aqueous solubility,[2],high aqueous solubility
same,side effects,[3]; [6],absence of any apparent side effects
same,effect on established subcutaneous myeloma xenografts (tumour volume),[3]; [6],virtually eradicated
same,effect on established subcutaneous myeloma xenografts (tumour volume),"[3]; 14.5 mg/kg/day continual infusion, listed as DTP-3",dramatic shrinkage of the tumors
same,appearance of caspase-3 and PARP-1 proteolysis products in tumour,[3]; [7],3 days
same,appearance of phosphorylated JNK in tumour after onset of treatment,[3]; [7],24 h
same,level at time molar,[4],~1000 nM
same,"efficacy in multiple myeloma cell lines resistant to dexamethasone, bortezomib and lenalidomide",[5],retained full therapeutic efficacy
